Source: patent US20250381168A1, “VLA4 INHIBITORS AND USES THEREOF” (Washington University, priority 2022, published 2025)
“Also recorded” adds a separate entry of the source. Where two headings read alike, the source gives them in different places.

Legend:
integrin a4b7 = integrin a4b7 (Homo sapiens (Human), UniProt P13612+P26010); assay: a4b7 solid phase receptor assay (SPRA); conditions: recombinant human a4b7 binding to plate-coated human VCAM1 (TABLE 4)
Procedure: Wells were washed 3 times with TBS+ and blocking buffer (TBS+ with 1% bovine serum albumin), the plate was incubated for 1 hr at 37° C., and then washed 3× with TBS+ buffer. Recombinant human a4b7 (R & D Systems) was diluted to 1 μg/ml in TBS+/0.1% bovine serum albumin. Test compounds were diluted into the integrin solution and added to the washed ligand-coated plate according to a standard template with each sample repeated in triplicate. After incubation for 2 hr at room temperature, the plate was washed 3× with 150 μl of TBS+ buffer. To each well, biotinylated anti-A4 antibody (R & D Systems) at 1 μg/ml in TBS+/0.1% BSA was added and the plate covered and incubated for 1 hr at room temperature. After washing the plate 3× with TBS+ buffer, streptavidin-conjugated horseradish peroxidase (R & D Systems) diluted in TBS+ blocking buffer was added to the wells and the plate incubated for 20 min at room temperature. The plate was washed 3× with TBS+ buffer followed by addition of 50 μl of TMB substrate (Sigma T4444). After incubation for 20 min at room temperature, plates were stopped with TMB stop solution (Sigma S5689) by colorimetric detection at 450 nm wavelength using a Tecan Safire II plate reader.

VLA-4 (a4b1) = VLA-4 (a4b1) (Homo sapiens (Human), UniProt P05556+P13612); assay: sVCAM flow cytometry cell-based assay (inhibition of soluble VCAM-1 binding to G2 ALL cells);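 also: compounds at 0.1 to 1000 nM preincubated 30 min with G2 ALL cells, then VCAM/Fc added for 30 min, bound VCAM-1 detected by PE secondary antibody, percent binding cells by flow cytometry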
Procedure: VLA-4 (a4b1) inhibitor compounds were tested for their ability to inhibit the binding of soluble VCAM-1 to human G2 acute lymphoblastic leukemia (ALL) cells. Briefly, G2 ALL cells are pre-incubated with increasing concentrations (0.1 to 1000 nM) of compounds for 30 minutes. Soluble VCAM/Fc chimera protein (R & D systems) is then added to the mixture and the cells incubated for an additional 30 minutes. Afterwards, cells are washed and VCAM-1 is detected using a PE-conjugated secondary polyclonal antibody. In each experiment, an aliquot of cells are stained with isotype control antibodies to serve as a negative control. The percentage of VCAM-1 binding cells was then determined by flow cytometry.

[1] = tested on: hematopoietic stem/progenitor cells (HSPCs); assay: HSPC mobilization into peripheral blood, colony forming unit (CFU) assay; as to HSPC mobilization, result in words: test concentration or dose not given here; as to No. CFU (×10^3)/mL ± SD, 6 hr: test concentration or dose not given here; conditions: mice; for No. CFU (x10^3)/mL ± SD, 2 hr: 2 hr post dose (TABLE 11); for No. CFU (x10^3)/mL ± SD, 4 hr: 4 hr post dose (TABLE 11); for No. CFU (x10^3)/mL ± SD, 6 hr: 6 hr post dose (TABLE 11); for No. CFU (x10^3)/mL ± SD, 24 hr: 24 hr post dose (TABLE 11); for No. CFU (×10^3)/mL ± SD, 1 hr: 1 hr post dose (TABLE 20); for No. CFU (×10^3)/mL ± SD, 8 hr: 8 hr post dose (TABLE 20)
[2] = inhibition of sVCAM-1 binding to human G2 ALL cells (TABLE 3), read-out: SVCAM-1, IC50
[3] = as listed in TABLE 9, read-out: sVCAM IC50
[4] = as listed in TABLE 11, read-out: sVCAM IC50
[5] = single dose, peripheral blood, 2 hr post dose (TABLE 9)
[6] = single dose, peripheral blood, 4 hr post dose (TABLE 9)
[7] = single dose, peripheral blood, 6 hr post dose (TABLE 9)
[8] = as listed in TABLE 20, read-out: sVCAM IC50
[9] = single dose, peripheral blood, 4 hr post dose (TABLE 20)

Sequence of VLA-4 (a4b1) (P13612 34-1032): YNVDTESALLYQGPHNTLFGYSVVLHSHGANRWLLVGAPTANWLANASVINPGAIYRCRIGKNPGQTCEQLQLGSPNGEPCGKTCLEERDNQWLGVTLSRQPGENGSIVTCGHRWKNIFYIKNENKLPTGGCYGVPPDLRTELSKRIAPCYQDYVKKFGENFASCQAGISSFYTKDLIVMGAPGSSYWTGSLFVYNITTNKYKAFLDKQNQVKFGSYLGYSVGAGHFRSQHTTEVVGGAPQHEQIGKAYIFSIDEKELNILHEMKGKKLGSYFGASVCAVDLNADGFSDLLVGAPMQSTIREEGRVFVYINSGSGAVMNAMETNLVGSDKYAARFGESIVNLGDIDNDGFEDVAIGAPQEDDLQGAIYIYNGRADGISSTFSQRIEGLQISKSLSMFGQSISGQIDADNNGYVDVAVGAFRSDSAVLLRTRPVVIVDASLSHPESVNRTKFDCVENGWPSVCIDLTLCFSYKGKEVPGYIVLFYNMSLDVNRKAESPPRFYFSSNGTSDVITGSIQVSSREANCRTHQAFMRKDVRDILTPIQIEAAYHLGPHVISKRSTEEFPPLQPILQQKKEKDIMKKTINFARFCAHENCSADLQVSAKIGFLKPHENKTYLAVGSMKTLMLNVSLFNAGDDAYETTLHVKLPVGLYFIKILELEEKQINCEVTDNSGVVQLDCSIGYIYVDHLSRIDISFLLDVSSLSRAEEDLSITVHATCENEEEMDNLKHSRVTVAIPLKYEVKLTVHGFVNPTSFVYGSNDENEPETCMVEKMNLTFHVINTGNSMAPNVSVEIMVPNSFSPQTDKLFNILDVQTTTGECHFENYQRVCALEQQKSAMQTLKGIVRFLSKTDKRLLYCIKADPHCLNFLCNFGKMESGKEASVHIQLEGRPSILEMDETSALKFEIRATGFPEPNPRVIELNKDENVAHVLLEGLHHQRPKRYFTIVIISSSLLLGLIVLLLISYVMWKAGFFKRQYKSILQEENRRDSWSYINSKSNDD
Sequence of VLA-4 (a4b1) (P05556 21-798): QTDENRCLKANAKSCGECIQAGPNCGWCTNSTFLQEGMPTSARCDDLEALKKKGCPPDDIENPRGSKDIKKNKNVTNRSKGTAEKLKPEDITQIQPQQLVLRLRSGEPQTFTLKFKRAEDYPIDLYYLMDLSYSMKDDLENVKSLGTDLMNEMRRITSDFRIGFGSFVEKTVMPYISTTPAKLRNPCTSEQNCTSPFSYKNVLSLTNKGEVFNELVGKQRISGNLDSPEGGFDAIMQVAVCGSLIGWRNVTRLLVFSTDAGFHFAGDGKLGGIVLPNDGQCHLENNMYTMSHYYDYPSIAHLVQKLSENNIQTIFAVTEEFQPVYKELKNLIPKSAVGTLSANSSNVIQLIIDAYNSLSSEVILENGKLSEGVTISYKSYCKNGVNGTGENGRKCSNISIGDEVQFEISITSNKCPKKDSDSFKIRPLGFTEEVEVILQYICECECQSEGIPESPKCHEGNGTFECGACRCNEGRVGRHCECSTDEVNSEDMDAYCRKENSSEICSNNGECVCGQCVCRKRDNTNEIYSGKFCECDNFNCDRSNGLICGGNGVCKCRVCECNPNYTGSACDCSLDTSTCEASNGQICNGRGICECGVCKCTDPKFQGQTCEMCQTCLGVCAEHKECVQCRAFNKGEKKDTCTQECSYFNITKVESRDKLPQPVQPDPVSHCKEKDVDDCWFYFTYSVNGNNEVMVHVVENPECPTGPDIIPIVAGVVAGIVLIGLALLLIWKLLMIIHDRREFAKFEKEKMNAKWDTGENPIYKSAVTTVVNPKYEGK
Sequence of integrin a4b7 (P13612 34-970): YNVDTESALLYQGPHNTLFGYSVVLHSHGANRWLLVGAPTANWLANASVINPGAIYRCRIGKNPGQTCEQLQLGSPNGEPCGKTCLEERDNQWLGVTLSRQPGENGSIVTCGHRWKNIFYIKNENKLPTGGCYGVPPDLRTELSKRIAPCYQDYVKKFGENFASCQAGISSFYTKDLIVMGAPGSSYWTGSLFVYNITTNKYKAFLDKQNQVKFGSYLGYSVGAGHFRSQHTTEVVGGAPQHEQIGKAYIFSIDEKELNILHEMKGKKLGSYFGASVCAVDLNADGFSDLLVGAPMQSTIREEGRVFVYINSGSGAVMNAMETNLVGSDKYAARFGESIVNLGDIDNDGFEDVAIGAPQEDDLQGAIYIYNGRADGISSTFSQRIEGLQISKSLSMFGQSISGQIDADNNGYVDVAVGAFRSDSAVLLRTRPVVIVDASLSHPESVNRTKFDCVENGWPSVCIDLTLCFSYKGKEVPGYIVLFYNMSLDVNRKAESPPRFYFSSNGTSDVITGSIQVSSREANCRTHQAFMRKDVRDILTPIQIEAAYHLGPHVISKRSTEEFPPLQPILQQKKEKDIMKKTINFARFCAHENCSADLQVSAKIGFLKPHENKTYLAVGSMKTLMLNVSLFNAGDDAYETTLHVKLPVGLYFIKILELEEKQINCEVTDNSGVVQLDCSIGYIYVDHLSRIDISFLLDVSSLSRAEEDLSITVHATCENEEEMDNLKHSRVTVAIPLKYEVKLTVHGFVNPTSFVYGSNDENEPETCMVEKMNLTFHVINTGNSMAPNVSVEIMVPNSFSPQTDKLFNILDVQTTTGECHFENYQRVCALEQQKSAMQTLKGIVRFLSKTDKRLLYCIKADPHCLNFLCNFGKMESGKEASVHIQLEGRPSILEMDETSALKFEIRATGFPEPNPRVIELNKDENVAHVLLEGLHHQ
Sequence of integrin a4b7 (P26010 20-723): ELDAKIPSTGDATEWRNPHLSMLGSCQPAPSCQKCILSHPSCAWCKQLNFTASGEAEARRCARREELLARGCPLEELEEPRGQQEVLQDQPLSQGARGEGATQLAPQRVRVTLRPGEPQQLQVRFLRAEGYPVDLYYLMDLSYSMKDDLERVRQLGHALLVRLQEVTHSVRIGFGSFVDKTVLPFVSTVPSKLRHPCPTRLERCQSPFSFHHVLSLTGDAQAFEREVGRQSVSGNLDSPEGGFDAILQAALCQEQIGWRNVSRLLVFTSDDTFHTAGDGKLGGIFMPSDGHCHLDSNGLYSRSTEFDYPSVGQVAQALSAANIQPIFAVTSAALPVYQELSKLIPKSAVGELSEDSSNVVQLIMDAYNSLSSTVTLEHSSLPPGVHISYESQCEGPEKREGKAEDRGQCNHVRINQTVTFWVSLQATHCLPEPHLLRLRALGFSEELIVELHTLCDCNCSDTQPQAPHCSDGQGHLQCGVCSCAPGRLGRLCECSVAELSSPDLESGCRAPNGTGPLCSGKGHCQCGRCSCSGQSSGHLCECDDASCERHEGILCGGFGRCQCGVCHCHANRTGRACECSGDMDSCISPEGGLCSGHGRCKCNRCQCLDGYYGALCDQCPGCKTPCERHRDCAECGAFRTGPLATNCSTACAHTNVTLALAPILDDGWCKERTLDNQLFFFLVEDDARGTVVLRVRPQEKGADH

Compound `Cc1ccccc1NC(=O)Nc1ccc(CC(=O)N(C)[C@@H](CC(C)C)C(=O)NCC[C@H](NC(=O)[C@@H]2CCCN2S(=O)(=O)c2cc(Cl)cc(Cl)c2)C(=O)O)cc1` [BIO5192] has an IC50 (integrin a4b7) greater than 10000 nM.
`COCCOCCOCCOCCOCCOCCOCCOCCOCCOCCOCCOCCOCCOCCOCCOCCOCCOCCOCCOCCOCCOCCOCCOCCOCCOCCOCCOCCOCCOCCOCCOCCOCCOCCOCCOCCn1cc(COCc2cc(OC)c(-c3ccc(C[C@H](NC(=O)[C@@H]4CCCN4S(=O)(=O)c4cc(Cl)cc(Cl)c4)C(=O)O)cc3)c(OC)c2)nn1` [Example C10, (S)-3-(4′-(((1-(2,5,8,11,14,17,20,23,26,29,32,35,38,41,44,47,50,53,56,59,62,65,68,71,74,77,80,83, 86,89,92,95,98,101,104,107-hexatriacontaoxanonahectan-109-yl)-1H-1,2,3-triazol-4-yl)methoxy)methyl)-2′,6′-dimethoxy-[1,1′-biphenyl]-4-yl)-2-((S)-1-((3,5-dichlorophenyl)sulfonyl)pyrrolidine-2-carboxamido)propanoic Acid] was tested, and the IC50 (VLA-4 (a4b1); as listed in TABLE 8, read-out: sVCAM IC50) was 0.552 nM, the IC50 (VLA-4 (a4b1); [2]) was 0.552 nM and the “HSPC mobilization, result in words” value ([1]; single dose) was “returning to baseline by 4 hours; also recorded: inferior mobilization at 4 hours compared to Example 3”. The “No. CFU (×10^3)/mL ± SD, 0.25 hr” value ([1]; single dose, peripheral blood, 0.25 hr post dose (TABLE 8)) was 3.87 ± 1.33 (×10^3)/mL, the “No. CFU (×10^3)/mL ± SD, 2 hr” value ([1]; single dose, peripheral blood, 2 hr post dose (TABLE 8)) was 3.37 ± 1.12 (×10^3)/mL and the “No. CFU (×10^3)/mL ± SD, 4 hr” value ([1]; single dose, peripheral blood, 4 hr post dose (TABLE 8)) was 0.90 ± 0.52 (×10^3)/mL.
`COCCOCCOCCOCCOCCOCCOCCOCCOCc1cc(OC)c(-c2ccc(C[C@H](NC(=O)[C@@H]3CCCN3S(=O)(=O)c3cc(Cl)cc(Cl)c3)C(=O)O)cc2)c(OC)c1` [Example C12, (2S)-2-[[(2S)-1-(3,5-dichlorophenyl)sulfonylpyrrolidine-2-carbonyl]amino]-3-[4-[2,6-dimethoxy-4-[2-[2-[2-[2-[2-[2-[2-(2-methoxyethoxy)ethoxy]ethoxy]ethoxy]ethoxy]ethoxy]ethoxy]ethoxymethyl]phenyl]phenyl]propanoic Acid] gave an IC50 (VLA-4 (a4b1); [3]) of 0.573 nM, an IC50 (VLA-4 (a4b1); [4]) of 0.573 nM and an IC50 (VLA-4 (a4b1); as listed in TABLE 17, read-out: sVCAM IC50) of 0.573 nM. For the same compound, the IC50 (VLA-4 (a4b1); [2]) was 0.573 nM, the “time to which HSPC mobilization is extended after a single dose” value [1] was no more than 2 h and the “No. CFU (×10^3)/mL ± SD, 2 hr” value ([1]; alone or in combination with Plerixafor and tGroβ, peripheral blood, 2 hr (TABLE 17)) was 4.02 ± 1.99 (×10^3)/mL. For the same compound, the “No. CFU (×10^3)/mL ± SD, 4 hr” value ([1]; alone or in combination with Plerixafor and tGroβ, peripheral blood, 4 hr (TABLE 17)) was 0.90 ± 0.61 (×10^3)/mL, the “No. CFU (×10^3)/mL ± SD, 6 hr” value ([1]; alone or in combination with Plerixafor and tGroβ, peripheral blood, 6 hr (TABLE 17)) was 0.25 ± 0.08 (×10^3)/mL and the “HSPC mobilization, result in words” value ([1]; single dose) was “returning to baseline by 4 hours and clearly at baseline by 6 hours; also recorded: do not provide the same extended mobilization as the 24 PEG unit analogues”. The “No. CFU (×10^3)/mL ± SD, 2 hr” value [1, 5] was 2.42 ± 1.06 (×10^3)/mL, the “No. CFU (x10^3)/mL ± SD, 2 hr” value ([1]; single dose, peripheral blood) was 0.78 ± 0.17 (x10^3)/mL and the “No. CFU (×10^3)/mL ± SD, 4 hr” value [1, 6] was 1.19 ± 0.53 (×10^3)/mL. For the same compound, the “No. CFU (x10^3)/mL ± SD, 4 hr” value ([1]; single dose, peripheral blood) was 0.58 ± 0.19 (x10^3)/mL, the “No. CFU (×10^3)/mL ± SD, 6 hr” value [1, 7] was 0.24 ± 0.15 (×10^3)/mL and the “No. CFU (x10^3)/mL ± SD, 6 hr” value ([1]; single dose, peripheral blood) was 0.22 ± 0.10 (x10^3)/mL. For the same compound, the “No. CFU (x10^3)/mL ± SD, 24 hr” value ([1]; single dose, peripheral blood) was 0.14 ± 0.07 (x10^3)/mL.
With `COCCOCCOCCOCCOCCOCCOCCOCCOCCOCCOCCOCCOCc1cc(OC)c(-c2ccc(C[C@H](NC(=O)[C@@H]3CCCN3S(=O)(=O)c3cc(Cl)cc(Cl)c3)C(=O)O)cc2)c(OC)c1` [Example C13, (S)-2-((S)-1-((3,5-dichlorophenyl)sulfonyl)pyrrolidine-2-carboxamido)-3-(2′,6′-dimethoxy-4′-(2,5,8,11,14,17,20,23,26,29,32,35,38-tridecaoxanonatriacontyl)-[1,1′-biphenyl]-4-yl)propanoic Acid] the IC50 (VLA-4 (a4b1); [3]) was 0.673 nM, the IC50 (VLA-4 (a4b1); [2]) was 0.673 nM and the “HSPC mobilization, result in words” value ([1]; single dose) was “returning to baseline by 4 hours and clearly at baseline by 6 hours”. For the same compound, the “No. CFU (×10^3)/mL ± SD, 2 hr” value [1, 5] was 2.01 ± 0.75 (×10^3)/mL, the “No. CFU (×10^3)/mL ± SD, 4 hr” value [1, 6] was 0.41 ± 0.19 (×10^3)/mL and the “No. CFU (×10^3)/mL ± SD, 6 hr” value [1, 7] was 0.10 ± 0.04 (×10^3)/mL.
In the case of `COCCOCCOCCOCCOCCOCCOCCOCCOCCOCCOCCOCCOCCOCCOCCOCCOCc1cc(OC)c(-c2ccc(C[C@H](NC(=O)[C@@H]3CCCN3S(=O)(=O)c3cc(Cl)cc(Cl)c3)C(=O)O)cc2)c(OC)c1` [Example C14, (S)-3-(4′-(2,5,8,11,14,17,20,23,26,29,32,35,38,41,44,47,50-heptadecaoxahenpentacontyl)-2′,6′-dimethoxy-[1,1′-biphenyl]-4-yl)-2-((S)-1-((3,5-dichlorophenyl)sulfonyl)pyrrolidine-2-carboxamido)propanoic Acid], the IC50 (VLA-4 (a4b1); [3]) is reported as 0.702 nM, the IC50 (VLA-4 (a4b1); as listed in TABLE 10, read-out: sVCAM IC50) is reported as 0.702 nM and the IC50 (VLA-4 (a4b1); [2]) is reported as 0.702 nM. For the same compound, the “HSPC mobilization, result in words” value ([1]; single dose) was “returning to baseline by 4 hours and clearly at baseline by 6 hours; also recorded: returning to baseline at 4 hours and affords no mobilization effects at 6 hours”, the “No. CFU (×10^3)/mL ± SD, 2 hr” value [1, 5] was 3.17 ± 1.17 (×10^3)/mL and the “No. CFU (×10^3)/mL ± SD, 2 hr” value ([1]; single dose, peripheral blood, 2 hr post dose (TABLE 10)) was 3.40 ± 1.42 (×10^3)/mL. For the same compound, the “No. CFU (×10^3)/mL ± SD, 4 hr” value [1, 6] was 0.50 ± 0.25 (×10^3)/mL, the “No. CFU (×10^3)/mL ± SD, 4 hr” value ([1]; single dose, peripheral blood, 4 hr post dose (TABLE 10)) was 0.82 ± 0.47 (×10^3)/mL and the “No. CFU (×10^3)/mL ± SD, 6 hr” value [1, 7] was 0.08 ± 0.11 (×10^3)/mL. For the same compound, the “No. CFU (×10^3)/mL ± SD, 6 hr” value ([1]; single dose, peripheral blood, 6 hr post dose (TABLE 10)) was 0.25 ± 0.16 (×10^3)/mL.
For `COCCOCCOCCOCCOCCOCCOCCOCCSCc1cc(OC)c(-c2ccc(C[C@H](NC(=O)[C@@H]3CCCN3S(=O)(=O)c3cc(Cl)cc(Cl)c3)C(=O)O)cc2)c(OC)c1` [Example C16], the IC50 (VLA-4 (a4b1); [4]) was 0.155 nM, the IC50 (VLA-4 (a4b1); [2]) was 0.155 nM and the “No. CFU (x10^3)/mL ± SD, 2 hr” value ([1]; single dose, peripheral blood) was 2.34 ± 0.55 (x10^3)/mL. For the same compound, the “No. CFU (x10^3)/mL ± SD, 4 hr” value ([1]; single dose, peripheral blood) was 1.14 ± 0.86 (x10^3)/mL, the “No. CFU (x10^3)/mL ± SD, 6 hr” value ([1]; single dose, peripheral blood) was 0.38 ± 0.24 (x10^3)/mL and the “No. CFU (x10^3)/mL ± SD, 24 hr” value ([1]; single dose, peripheral blood) was 0.14 ± 0.06 (x10^3)/mL.
With `Cc1cccc(Cl)c1C(=O)N[C@@H](Cc1ccc(NC(=O)c2c(Cl)cccc2Cl)cc1)C(=O)O` [RO0270608] the IC50 (VLA-4 (a4b1); [8]) was 98.7 nM, the IC50 (VLA-4 (a4b1); [2]) was 98.7 nM and the “HSPC mobilization, result in words” value ([1]; single dose) was “lack of any appreciable HSC mobilization”. For the same compound, the “No. CFU (×10^3)/mL ± SD, 1 hr” value ([1]; single dose, peripheral blood) was 0.64 ± 0.41 (×10^3)/mL, the “No. CFU (×10^3)/mL ± SD, 4 hr” value [1, 9] was 0.19 ± 0.06 (×10^3)/mL and the “No. CFU (×10^3)/mL ± SD, 8 hr” value ([1]; single dose, peripheral blood) was 0.11 ± 0.05 (×10^3)/mL.
`COc1cccc(OC)c1-c1ccc(C[C@H](NC(=O)c2c(Cl)cccc2Cl)C(=O)O)cc1` [TR-14035] was tested, and the IC50 (VLA-4 (a4b1); [8]) was 247 nM, the IC50 (VLA-4 (a4b1); [2]) was 247 nM and the “No. CFU (×10^3)/mL ± SD, 1 hr” value ([1]; single dose, peripheral blood) was 0.54 ± 0.15 (×10^3)/mL. The “No. CFU (×10^3)/mL ± SD, 4 hr” value [1, 9] was 0.18 ± 0.13 (×10^3)/mL and the “No. CFU (×10^3)/mL ± SD, 8 hr” value ([1]; single dose, peripheral blood) was 0.10 ± 0.05 (×10^3)/mL.
